Literature values, collected in patent publication US20060165808A1, “Microcapsules for the delayed, controlled release of perindopril” (priority 2002, published 2006).

Compound: CCC[C@H](N[C@@H](C)C(=O)N1[C@H](C(=O)O)C[C@@H]2CCCC[C@@H]21)C(=O)OCC [perindopril]
- solubility in aqueous media: very high degree of solubility
